Experimental findings from ChEMBL document CHEMBL1157539, “Thousands of chemical starting points for antimalarial lead identification” (Nature, 2010) are described below.

Structures are written as SMILES.

For this assay, the system named is Plasmodium falciparum. Kind of assay: GSK_TCMDC: Inhibition of Plasmodium falciparum 3D7 in whole erythrocytes, using parasite LDH activity as an index of growth. The assay is classed as functional, organism-based. The following applies: Plasmodium falciparum, 3D7.
In turn, `COc1cc(Cn2ccc3c4c(N)nc(N)nc4ccc32)cc(OC)c1OC` showed an XC50 of 9.34 nM.
With `CCNCc1ccc(-c2cc3ncnc(Nc4ccc(OCc5cccc(F)c5)c(Cl)c4)c3s2)[nH]1` the figure was 109 nM.
Under `Cc1cc(NC(=O)Nc2cccc(N(C)C)c2)c2ccccc2n1` stands 201 nM; under `O=C(/C=C/c1ccc(Cl)c(Cl)c1)NC1CCN(CCNC(=O)c2cccc(Cl)c2)CC1`, 550 nM; under `COc1ccc(NC(=O)Nc2ccc(Nc3nc(C)cc(N(C)C)n3)cc2)cc1`, 454 nM.
On to `COCc1cccc(-c2cc(-c3ccc(S(C)(=O)=O)cc3)cnc2N)c1`, for which the XC50 stood at 1000 nM.
With `Nc1ccc(-c2ccc(NC(=O)Nc3cc(C(F)(F)F)ccc3F)cc2)cn1` the figure was 657 nM; with `Cc1ccc(NC(=O)c2cc(Br)cc(N3CCCN(C)CC3)c2)cc1F`, 1340 nM.
Under `CC(C)(Oc1ccc(Cl)cc1)C(=O)NCCC1CCN(CCCCCNC(=O)/C=C/c2ccc(Cl)c(Cl)c2)CC1` stands 936 nM; under `Cc1cccc(C(=O)Nc2ccnc(N(C)CCCN(C)Cc3cccc(C#N)c3)c2)c1`, 1320 nM; under `COc1ccc2nccc([C@@H](O)CN3CCC(NC(=O)/C=C/c4cc(F)cc(NC(C)=O)c4)CC3)c2c1`, 183 nM.
Under `CCOC(=O)C(C)(C)Oc1ccc(C(=C2CC(C)(C)CC(C)(C)C2)c2ccc(O)cc2)cc1` stands 1130 nM.
The compound `CC(CCc1ccccc1)NCC(O)c1cccc([N+](=O)[O-])c1` (stereo unspecified) showed an XC50 of 858 nM.
Compound `O=C(NCCc1ccccc1)c1cc(-c2cccnc2)cnc1NCC1CC1` came in with an XC50 of 847 nM.
With `CNCCN(C)C(=O)Oc1c(Cl)c(C)nc(C)c1-c1ccc(Oc2ccc(OC(F)(F)F)cc2)cc1` the figure was 127 nM.
`O=S(=O)(NCCN1CCCC1)c1cccc(-c2ccccc2CNC2Cc3ccccc3C2)c1`: the XC50 is 738 nM.
`CN(C)c1ccc(CN2CCC(NC(=O)c3ccc(-c4ccccc4F)s3)CC2)cc1` gave an XC50 of 1120 nM.
For the compound `CCCNC(=O)c1ccc(N2CCC(c3ccccc3C)CC2)nc1`, the XC50 worked out at 1520 nM.
Under `COc1ccc2ncc(F)c(CCN3CC[C@@H](CNCc4cc(C)c5c(c4)OCCO5)C3)c2n1` stands 890 nM; under `O=C(Nc1ccc(C(F)(F)F)cc1)c1ccc(S(=O)(=O)NC2CCN(CC3CCCCC3)C2)cc1` (stereo unspecified), 723 nM; under `COc1ccc(CCN(C)CCOc2ccc(NC(=O)c3cc(SC)cc4c(=O)c5ccccc5[nH]c34)cc2)cc1OC`, 1400 nM.
With `COCCNCc1ccc(-c2ccc3c(Nc4ccc(F)cc4Cl)ccnc3c2)o1` the figure was 209 nM; with `N=C(N)NN=CC(=O)Nc1ccc(C(F)(F)F)cc1`, 932 nM; with `CSC1=NC(=Nc2c(C)cccc2C)C2(CCCCC2)N1c1ccccc1Cl`, 817 nM.
For the compound `CCCC1(NC[C@@H](O)[C@H](Cc2ccccc2)NC(=O)c2cc(NCC)cc(N3CCCCS3(=O)=O)c2)CCC1`, the XC50 came to 720 nM.
`Oc1ccc(CN2CCN(CCOC(c3ccccc3)c3ccccc3)CC2)cc1Cl` displayed an XC50 of 806 nM.
With `CCNc1cc(C(=O)N[C@@H](Cc2ccc(F)c(F)c2)[C@H](O)CNCc2cccc(OC)c2)cc(N2CCCCS2(=O)=O)c1` the figure was 749 nM.
`CN(CCN(C)CC(O)c1ccc(Cl)c(Cl)c1)CC(O)c1ccc(Cl)c(Cl)c1` (stereo unspecified) displayed an XC50 of 1100 nM.
`CN(C)c1ccc2c(c1)Sc1cc(N(C)C)ccc1N2C(=O)CCCC(=O)O` showed an XC50 of 802 nM.
In turn, `O=C(Cc1ccc(NC(=O)c2ccc(O)c(-c3ccc(Cl)c(Cl)c3)c2)cc1)NCc1cccc(C(F)(F)F)c1` displayed an XC50 of 878 nM.
With `CC(Cc1ccc(OCc2ccccc2)cc1)Nc1nc(O)c2ccccc2n1` (stereo unspecified) the figure was 568 nM; with `CCNc1cc(C)nc(Nc2ccc(NC(=O)c3c(F)cccc3Cl)cc2)n1`, 1120 nM; with `Cc1ccc(C(=O)Nc2ccc(Nc3ccnc4cc(-c5ccncc5)ccc34)cc2O)cc1`, 929 nM.
Turning to `CNC(=O)c1cnc(Nc2ccc(N3CCN(C)CC3)cc2)nc1Nc1cccc(OC)c1`, the XC50 worked out at 752 nM.
With `O=C(/C=C/c1ccc(Cl)c(Cl)c1)NCCCCCN1CCC(NC(=O)Nc2ccc([N+](=O)[O-])cc2)CC1` the figure was 686 nM; with `COc1ccc(CCN(C)CCCCc2ccc(NC(=O)c3cccc4c(=O)c5cc(F)ccc5sc34)cc2)cc1OC`, 897 nM.
In turn, `COc1ccc2nc(NC(N)=NC(=O)Nc3ccccc3)nc(C)c2c1` gave an XC50 of 1280 nM.
As for `O=C(NCCCNc1nc2ccccc2[nH]1)c1cccc(OC(F)(F)F)c1`, the XC50 worked out at 566 nM.
With `COc1ccc(-c2ccc(NC(=O)c3cccs3)cc2)cc1CN1CCCN(C)CC1`, the XC50 amounted to 964 nM.
Under `NC(=O)c1ccccc1OCC(=O)Nc1cccc(-c2ccc(-c3nc4ccccc4[nH]3)cc2)c1` stands 786 nM; under `COc1ccccc1N1CCN(CCCCNC(=O)c2ccc(NC(=O)c3cc4ccccc4o3)cc2)CC1`, 978 nM; under `CNCCNCc1cccc(-c2ccc(-c3nc4cc(C(F)(F)F)ccc4[nH]3)s2)c1`, 823 nM.
On to `CCOc1ccc2c(=NN=Cc3ccccn3)cc(C)[nH]c2c1`, for which the XC50 was determined as 862 nM.
Under `COc1cccc(NC(=O)NC2CCN(CCCCCNC(=O)/C=C/c3ccc(Cl)c(Cl)c3)CC2)c1` stands 777 nM; under `Cc1[nH]c2c(C)cc(NS(C)(=O)=O)cc2c1C1CCN(CC2CCN(C(=O)/C=C/c3ccc(Cl)c(Cl)c3)CC2)CC1`, 241 nM; under `O=C(/C=C/c1ccc(Cl)c(Cl)c1)NCCC(CN1CCC(c2c[nH]c3ccccc23)CC1)c1ccccc1` (stereo unspecified), 570 nM.
For the compound `Cc1[nH]c(C)c(-c2ccc(CCc3ccc(C(F)(F)F)cc3)nc2)c(=O)c1Cl`, the XC50 amounted to 88.1 nM.
Under `Cc1ccc(NS(=O)(=O)c2ccc(C(C)N3CCC(N4CCCCC4)CC3)cc2)cc1C` (stereo unspecified) stands 763 nM; under `CN(C)C(=O)CN1CCN(c2ncnc(N3CCc4c([nH]c5ccccc45)[C@@H]3c3ccc4c(c3)CCO4)n2)CC1`, 871 nM; under `Cc1nc(C)c(-c2ccc(Oc3ccc(Cl)cc3Cl)cc2)c(O)c1Br`, 297 nM.
Compound `COc1cc(C(=O)N2COCC(CCCN3CCC(N4CCCC4)CC3)(c3ccc(Cl)c(Cl)c3)C2)cc(OC)c1OC` (stereo unspecified) had an XC50 of 785 nM.
Consider `O=C(NCCCCN1CCC(c2ccc3ccccc3c2O)CC1)c1ccc(-c2ccc(Cl)cc2)cc1`, for which the XC50 worked out at 181 nM.
Under `CCCN(CCC)CC(O)COc1ccccc1C(=O)Nc1ccccc1` (stereo unspecified) stands 799 nM.
As for `Cc1cccc2nc(-c3cccc(-c4cccc(CN5CCN(c6ccncc6)CC5)c4)c3)[nH]c12`, the XC50 was 200 nM.
With `COc1ccc2cc(C(C)NC3CCN(c4cccc(NC(=O)c5ccncc5)c4)CC3)ccc2c1` (stereo unspecified) the figure was 1550 nM; with `Cc1cc(N[C@@H](CC(C)C)C(=O)Nc2ccccc2)nc(NCC2CCCCC2)n1`, 874 nM.
With `FC(F)(F)c1ccc(COc2cc(Cl)ccc2Cn2ccnc2)cc1` the figure was 649 nM; with `CC(C)C[C@H](NC(=O)c1ccc(OCCN2CCOCC2)cc1)C(=O)N[C@H](/C=N/N1CCN(C)C1=O)CCc1ccccc1`, 294 nM.
Under `Cc1cc(NC(=O)c2ccco2)ccc1OC1CCN(Cc2ccc(F)cc2)CC1` stands 588 nM; under `COc1ccc(C2CC(=O)C3=C(C2)NC(C)=C(C(=O)OC(C)C)C3c2ccc(O)cc2)cc1OC` (stereo unspecified), 278 nM; under `NC1CCCN(Cc2cccc(-c3ccc(-c4nc5ccccc5[nH]4)s3)c2)C1` (stereo unspecified), 585 nM.
The compound `CCCCCCOc1ccc(C(=O)NCCC2CCN(CCCCCNC(=O)C=Cc3ccc(Cl)c(Cl)c3)CC2)cc1` had an XC50 of 656 nM.
`O=C(Nc1cccc(-c2nn3ncccc3c2-c2ccnc(Nc3cccc(C(F)(F)F)c3)n2)c1)c1c(F)cccc1F` showed an XC50 of 648 nM.
Under `CNC(=O)c1nc(-c2ccccc2)[nH]c1NC(C)=O` stands 152 nM.
In turn, `Cc1ccc(Nc2ccnc(Nc3ccc(C)c(F)c3)n2)cc1O` yielded an XC50 of 761 nM.
Under `Cc1cccc2nc(-c3ccc(-c4cccc(NC(=O)Nc5cccc(C#N)c5)c4)cc3)[nH]c12` stands 544 nM.
In turn, `Cn1c(NC2CCN(CC3CCN(C(=O)/C=C/c4ccc(Cl)c(Cl)c4)CC3)CC2)nc2ccccc21` returned an XC50 of 148 nM.
With `O=C(CSc1nn(-c2ccccc2)c(=S)s1)c1c[nH]c2ccccc12` the figure was 1090 nM; with `Cc1cc(N(C)C)nc(Nc2ccc(NC(=O)c3cccc(F)c3)cc2)n1`, 998 nM.
Compound `CC1(C)NC(N)=NC(=N)N1OCc1cccs1` displayed an XC50 of 3.2 nM.
Under `CCCc1cc(O)c2c3c(c(=O)oc2c1)CN(C)CC3` stands 873 nM.
Under `CCC[C@@H]([C@@H](CC(C)C)C(=O)N[C@H](C(=O)Nc1nccs1)C(C)(C)SCCNC(=O)OCC)N(O)C=O` stands 173 nM.
With `CCCCc1ccc(-c2nc(NC(=O)Nc3[nH]c(-c4ccccc4)nc3C(=O)OCC)c(C(=O)OCC)[nH]2)cc1` the figure was 752 nM; with `CC(NCC(O)Cn1c2ccccc2c2ccccc21)c1ccccc1` (stereo unspecified), 931 nM.
Compound `Cc1nc2nc(N)nc(N)c2c(C)c1Cc1ccccc1` yielded an XC50 of 248 nM.
With `Cc1cccc2nc(-c3ccc(-c4cccc(CNCCNC(=O)c5ccnn5C)c4)s3)[nH]c12` the figure was 216 nM; with `CNCCNCc1ccc(-c2ccc(-c3nc4cc(F)ccc4[nH]3)cc2)cc1`, 387 nM; with `Cc1cc(C(=O)Nc2ccc(-c3nc4ccccc4[nH]3)cc2)ccc1[N+](=O)[O-]`, 671 nM.
Under `COc1cc(-c2nc3ccc(N4CCN(C)CC4)cc3[nH]2)cc(OC)c1OC` stands 1270 nM; under `CCCCCCn1c(Sc2ccc(C#N)c([N+](=O)[O-])c2)nnc1-c1cccs1`, 706 nM; under `COc1ccc(CN2CCN(CCOC(c3ccccc3)c3ccccc3)CC2)c(O)c1`, 1190 nM.
In the case of `O=[N+]([O-])c1ccc(/C=N/Nc2cc(-c3ccccc3)nc3ccccc23)o1`, the XC50 came to 863 nM.
For the compound `O=C(/C=C/c1ccc(Cl)c(Cl)c1)NCCCCCN1CCC(NC(=O)Nc2ccc(C(F)(F)F)cc2)CC1`, the XC50 was determined as 750 nM.
Turning to `COc1ccc(-c2cnc3[nH]cc(-c4ccc(C(=O)O)cc4)c3c2)cn1`, the XC50 amounted to 541 nM.
Under `CN1CCC(Oc2cc(NC(=O)Nc3ccc(-c4ccncc4)c(C(F)(F)F)c3)ccc2Cl)CC1` stands 780 nM; under `CCCOc1cc(Cc2cnc(N)nc2N)cc(OC)c1OC`, 1170 nM.
